Measured values taken from patent US5563134A (Sandoz Ltd., priority 1993, dated 1996).
Where two headings read alike, the source gives them in different places.

Columns and labels:
[1] = tested on: glutathione and protein from human myeloperoxidase and human leucocytes
[2] = tested on: glutathione and protein from human myeloperoxidase and human leucocytes; assay: Reactive species formation and covalent binding of clozapine metabolites, tests as for clozapine
[3] = target: T1, horseradish peroxidase (Armoracia rusticana, UniProt P00433); assay: Electron spin resonance spectroscopy of radicals in a peroxidase system; settings: for Effect on ascorbyl radical concentration (ESR): 1 mM added to ascorbate/clozapine/horseradish peroxidase/hydrogen peroxide system
T1 sequence (P00433 31-338 limits assumed): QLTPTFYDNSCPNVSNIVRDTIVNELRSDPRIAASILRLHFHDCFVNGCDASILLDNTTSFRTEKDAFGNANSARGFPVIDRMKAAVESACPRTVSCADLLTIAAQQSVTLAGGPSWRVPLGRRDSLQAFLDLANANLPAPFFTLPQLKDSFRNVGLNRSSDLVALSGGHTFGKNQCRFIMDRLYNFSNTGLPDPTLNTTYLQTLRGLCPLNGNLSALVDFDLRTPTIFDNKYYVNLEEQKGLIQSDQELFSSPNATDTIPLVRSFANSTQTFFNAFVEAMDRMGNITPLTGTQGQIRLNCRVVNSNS

[4] = tested on: patients refractory and/or intolerant to classical antipsychotic drug treatment; settings: cited from earlier work
[5] = target: T1, horseradish peroxidase; assay: Clozapine metabolism by peroxidase, disappearance of UV absorption at 290 nm; format: biochemical
[6] = tested on: human myeloperoxidase or horseradish peroxidase; assay: HPLC with on-line radioactivity detection of tritium-labeled clozapine incubated with peroxidase and hydrogen peroxide; format: biochemical
Method: For HPLC a reversed phase column (Supelco Inc., Bellefonte Pa. USA LC-18-DB, 5 μm, 250×4.6 mm) was used. The mobile phase consisted of (NH4)2 CO3 buffer pH 8.5 (solvent A) and acetonitrile (solvent B). The proportion of solvent B was 0% for 5 minutes and was increased to reach 20% at 10 minutes, 24% at 60 minutes and 80% at 100 minutes. […] Instead two radioactive peaks eluting at 28 and 53 minutes from the HPLC appeared.

[7] = tested on: horseradish peroxidase (or human myeloperoxidase); format: biochemical
Method: (§1) Oxygen consumption has also been observed when horseradish peroxidase was replaced with human myeloperoxidase (10 units) and GSH with NADPH (10 mM).

[8] = target: horseradish peroxidase (or human myeloperoxidase) (Homo sapiens, UniProt P05164); format: biochemical; settings: clozapine 100 μM, human myeloperoxidase 10 units, NADPH 10 mM, in place of horseradish peroxidase and GSH
Sequence of horseradish peroxidase (or human myeloperoxidase) (Homo sapiens, UniProt P05164) (P05164 165-278 limits assumed): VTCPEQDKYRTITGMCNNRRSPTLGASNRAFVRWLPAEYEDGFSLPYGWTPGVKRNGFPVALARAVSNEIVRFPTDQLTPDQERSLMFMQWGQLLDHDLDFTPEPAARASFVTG
Sequence of horseradish peroxidase (or human myeloperoxidase) (Homo sapiens, UniProt P05164) (P05164 279-745 limits assumed): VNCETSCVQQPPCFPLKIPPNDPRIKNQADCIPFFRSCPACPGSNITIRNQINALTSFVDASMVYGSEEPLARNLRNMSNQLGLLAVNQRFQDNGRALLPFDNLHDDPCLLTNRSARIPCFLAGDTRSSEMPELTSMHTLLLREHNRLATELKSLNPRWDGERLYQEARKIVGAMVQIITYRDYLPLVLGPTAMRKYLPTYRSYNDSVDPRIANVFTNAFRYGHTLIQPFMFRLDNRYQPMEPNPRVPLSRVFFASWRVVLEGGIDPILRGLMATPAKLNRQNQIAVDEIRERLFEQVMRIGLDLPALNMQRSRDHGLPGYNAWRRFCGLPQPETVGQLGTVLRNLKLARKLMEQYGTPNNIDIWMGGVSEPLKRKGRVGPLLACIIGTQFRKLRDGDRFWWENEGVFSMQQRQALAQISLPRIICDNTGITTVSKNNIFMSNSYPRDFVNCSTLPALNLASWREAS
Method: as §1

[9] = tested on: granulocytes/polymorphonuclear leucocytes (PMN's); assay: Covalent binding of radiolabeled clozapine to isolated PMN's; format: cell-based, human
Method: 4) In another test heparinized peripheral blood was obtained from normal, healthy male volunteers, and granulocytes/polymorphonuclear leucocytes (PMN's) were isolated within 1-2 hours using an isolation kit (United Technologies Packard, Los Alamos, USA). PMN's were suspended in RPMI 1640 (Gibco, Basel, Switzerland) medium and adjusted to about 4×10^6 cells/ml before fetal calf serum was added (10% v/v).

CN1CCN(C2=Nc3cc(Cl)c(O)cc3Nc3ccccc32)CC1 [7-hydroxy-8-chloro-11-(4-methyl-1-piperazinyl)-5H-dibenzo[b,e][1,4]diazepine]
Formation of reactive species [1]: form reactive species such as free radicals

Clc1ccc2c(c1)N=C(N1CCNCC1)c1ccccc1N2 [8-chloro-11-(1-piperazinyl)-5H-dibenzo[b,e][1,4]diazepine]
Formation of reactive species [1]: form reactive species such as free radicals

C[N+]1([O-])CCN(C2=Nc3cc(Cl)ccc3Nc3ccccc32)CC1 [8-chloro-11-(4-methyl-4-oxo-1-piperazinyl)-5H-dibenzo[b,e][1,4]diazepine]
Formation of reactive species [1]: form reactive species such as free radicals

Oc1ccc2c(c1)N=C(N1CCNCC1)c1ccccc1N2 [8-hydroxy-11-(1-piperazinyl)-5H-dibenzo[b,e][1,4]diazepine]
Formation of reactive species [1]: form reactive species such as free radicals

CN1CCN(C2=Nc3cc(O)ccc3Nc3ccccc32)CC1 [8-hydroxy-11-(4-methyl-1-piperazinyl)-5H-dibenzo[b,e][1,4]diazepine]
Formation of reactive species ([2]; tests as for clozapine, worded "can also be shown"): form reactive species such as free radicals

CSc1ccc2c(c1)N=C(N1CCNCC1)c1ccccc1N2 [8-methylthio-11-(1-piperazinyl)-5H-dibenzo-[b,e][1,4]diazepine]
Formation of reactive species [1]: form reactive species such as free radicals

CSc1ccc2c(c1)N=C(N1CCN(C)CC1)c1ccccc1N2 [8-methylthio-11-(4-methyl-1-piperazinyl)-5H-dibenzo[b,e][1,4]diazepine]
Formation of reactive species [1]: form reactive species such as free radicals

NC(=O)C1=CN([C@@H]2O[C@H](COP(=O)(O)OP(=O)(O)OC[C@H]3O[C@@H](n4cnc5c(N)ncnc54)[C@H](OP(=O)(O)O)[C@@H]3O)[C@@H](O)[C@H]2O)C=CC1 [NADPH]
Effect on ascorbyl radical concentration (ESR) [3]: almost absent

O=C1O[C@H]([C@@H](O)CO)C(O)=C1O [ascorbic acid, L-ascorbic acid]
Effect on covalent binding of clozapine and its metabolites ([2]; intact human cells, radical scavenger): prevented

CN1CCN(C2=Nc3cc(Cl)ccc3Nc3ccccc32)CC1 [clozapine, 8-chloro-11-(4-methyl-1-piperazinyl)-5H-dibenzo[b,e][1,4]diazepine]
Antipsychotic efficacy compared with standard neuroleptics ([4]; clinical studies): superior | Patients refractory to standard neuroleptics who significantly improved ([4]; clozapine treatment): approximately 30% | Risk of granulocytopenia and agranulocytosis ([4]; clozapine treatment): apparent increased risk | Clozapine metabolism by peroxidases (disappearance of UV absorption at 290 nm) ([5]; clozapine 100 μM, 1-5 μg/ml horseradish peroxidase, 50 μM hydrogen peroxide, pH 7.4): demonstrated | Increase in steady-state concentration of the ascorbyl radical when clozapine is present ([3]; 100 μM sodium ascorbate, 100 μM clozapine, horseradish peroxidase 8.3 μg/ml, hydrogen peroxide 50 μM, pH 7.4): over two fold | Glutathionyl thiyl radicals by ESR (DMPO trapping) ([3]; absence of sodium ascorbate, DMPO 100 mM): detected | Covalent binding of clozapine-derived material to the enzyme (coelution of radioactivity with enzymatic protein) ([6]; clozapine 100 μM, enzyme and hydrogen peroxide present): Covalent binding of clozapine-derived material to the enzyme was indicated | Oxygen consumption as indicator of radical formation ([7]; clozapine 100 μM, horseradish peroxidase 5 μg/ml, GSH 10 mM, pH 7.4): indicates an initial clozapine radical formation | Oxygen consumption [8]: observed

N[C@@H](CCC(=O)N[C@@H](CS)C(=O)NCC(=O)O)C(=O)O [glutathione]
Effect on ascorbyl radical concentration (ESR) [3]: only marginally affected | Effect on covalent binding to the enzymatic protein and metabolite formation ([6]; GSH 10 mM, pH 7.4, added to standard incubation): reduced but to a lesser extent

O=C1O[C@H]([C@@H](O)CO)C([O-])=C1O.[Na+] [sodium ascorbate]
Effect on clozapine binding to PMN's ([9]; 5 mM sodium ascorbate, incubations containing opsonized zymosan): reduction of clozapine binding to PMN's | Effect on covalent binding of clozapine to PMN's ([9]; radiolabeled clozapine and sodium ascorbate incubated together with PMN's, worded "may also be shown"): reduction of covalent binding | Effect on metabolism of clozapine (UV signal changes) ([5]; sodium ascorbate 0.7 mM added to the incubation): reversed | Effect on clozapine metabolism (metabolite formation) ([6]; sodium ascorbate 0.7 mM): completely reversed | Effect on covalent binding of clozapine to enzymatic protein ([6]; sodium ascorbate 0.7 mM): no radioactivity coeluted with the enzymatic protein | Effect on oxygen consumption i.e. initial clozapine radical formation ([7]; sodium ascorbate 0.7 mM): prevented
